Test results: patent publication US20220162191A1, “SMALL MOLECULE MODULATORS OF IL-17” (LEO PHARMA A/S, priority 2019, published 2022)
pEC50: −log10 of the molar value.

Target: T1, human IL-17AA (Homo sapiens, UniProt Q16552)
T1 construct: host or cells: HEK (human embryonic kidney) cells
T1 sequence (Q16552 24-155) 1: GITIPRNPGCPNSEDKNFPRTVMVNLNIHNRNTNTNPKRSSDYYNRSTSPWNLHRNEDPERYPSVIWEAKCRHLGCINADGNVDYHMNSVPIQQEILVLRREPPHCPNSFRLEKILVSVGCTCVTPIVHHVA
T1 sequence (Q16552 24-155) 2: T1 sequence (Q16552 24-155) 1
Assay: IL-8 release assay in human epithelial keratinocytes adult (HEKa)
Assay type: cell-based
Details: 3 ng/ml human IL-17AA + 10 ng/ml human TNFalpha, 68-72 h, IL-8 by HTRF, read-out: Rel EC50 L-8 release assay
Method: Example: IL-8 release assay in human epithelial keratinocytes adult (HEKa) Keratinocytes were seeded at 3500 cells/well in 384-well ViewPlates (Perkin Elmer) in Epilife medium (Thermo Fisher) containing human keratinocyte growth supplement (HKGS) without hydrocortisone and incubated in a humid incubator at 37° C., 5% CO2, overnight. The following day growth medium was removed and 25 μl fresh Epilife 10 medium added. 75 nl test compound in 100% DMSO was added into each well reserved
for test compounds, by the use of acoustic pipetting. The remaining wells received an equal volume of DMSO only, as vehicle control, or terfenadine in DMSO, as a positive control for any cytotoxic compounds. Subsequently, another 25 μl Epilife medium was added to each well. Finally, wells containing test compounds and wells prepared to yield 15 maximum stimulation received 25 μl of 9 ng/ml recombinant, human embryonic kidney cell (HEK)-derived human IL-17AA+30 ng/ml human TNF-alpha, in Epilife medium. Wells prepared to define 100% inhibition of IL-17 effects received 25 μl of 30 ng/ml human TNF-alpha alone, in Epilife medium. Final concentrations were 3 ng/ml HEKhuman IL-17AA+10 ng/ml human TNFalpha (maximum stimulation) and 10 ng/ml 20 human TNFalpha alone (100% inhibition, Emax), respectively. Cells were incubated for 68-72 h in the incubator. IL-8 released from the cells was measured by the use of a commercial homogenous time-resolved fluorescence (HTRF) assay (CisBio). 2 μl cell culture supernatant was transferred to a 384-well Proxiplate. 5 μl HTRF reagent was added and the plates incubated sealed in the dark for 3-22 h at room temperature. Time resolved fluorescence was read at 665 vs 620 nm, with excitation at 320 nm, and IL-8 levels calculated as percent of controls. Reduction of the amount of secreted IL-8 indicates decreased IL-17 signaling. Concentration response curves were fitted by the use of a four-parameter logistic equation. Relative IC50 and Emax were reported from 5 curves showing acceptable fit (r2>0.9). Cytotoxicity was measured in the cell-containing
Compounds of the present invention were tested in the IL-8 release assay in human epithelial keratinocytes.

pEC50 | Compound
> 7.00 | Cc1nn(C)c(C)c1-c1ccc(NC(=O)[C@@H](NC(=O)C2(F)CC2)[C@@H]2CCc3ccc(-c4ccnc(N5C[C@@H]6C[C@H]5CO6)c4)cc32)cc1 [Example 371, 1-fluoro-N-[(1S)-1-[(1R)-6-[2-[(1S,4S)-2-oxa-5-azabicyclo[2.2.1]heptan-5-yl]-4-pyridyl]indan-1-yl]-2-oxo-2-[4-(1,3,5-trimethylpyrazol-4-yl)anilino]ethyl] cyclopropanecarboxamide]
> 7.00 | Cc1n[nH]c(C)c1-c1ccc(NC(=O)[C@@H](NC(=O)C2(F)CC2)[C@H](C)c2cccc(-c3ccnc(N4C[C@@H]5C[C@H]4CO5)c3)c2)cc1 [Example 341, N-[(1S,2R)-1-[[4-(3,5-dimethyl-1H-pyrazol-4-yl)phenyl]carbamoyl]-2-[3-[2-[(1S,4S)-2-oxa-5-azabicyclo[2.2.1]heptan-5-yl]-4-pyridyl]phenyl]propyl]-1-fluoro-cyclopropanecarboxamide]
> 7.00 | Cc1n[nH]c(C)c1-c1ccc(NC(=O)[C@@H](NC(=O)C2(F)CC2)[C@@H]2CCCc3ccc(-c4cnn(C5CCOCC5)c4)cc32)cc1 [Example 396, N-[(1S)-2-[4-(3,5-dimethyl-1H-pyrazol-4-yl)anilino]-2-oxo-1-[(1R)-7-(1-tetrahydropyran-4-ylpyrazol-4-yl)tetralin-1-yl]ethyl]-1-fluoro-cyclopropanecarboxamide]
> 7.00 | Cc1cnn(C)c1-c1ccc(NC(=O)[C@@H](NC(=O)c2ccnn2C)[C@@H](c2cccc(-c3cncc(N4C[C@@H]5C[C@H]4CO5)c3)c2)C2CC2)cc1 [Example 348, N-[(1S)-1-[(R)-cyclopropyl-[3-[5-[(1S,4S)-2-oxa-5-azabicyclo[2.2.1]heptan-5-yl]-3-pyridyl]phenyl]methyl]-2-[4-(2,4-dimethylpyrazol-3-yl)anilino]-2-oxo-ethyl]-2-methyl-pyrazole-3-carboxamide]
6.00 to 7.00 | Cc1nccn1-c1ccc(NC(=O)[C@@H](NC(=O)C2(F)CC2)[C@@H]2CCCc3ccc(-c4ccnc(N5C[C@H]6C[C@@H]5CO6)c4)cc32)cc1 [Example 401, 1-fluoro-N-[(1S)-2-[4-(2-methylimidazol-1-yl)anilino]-1-[(1R)-7-[2-[(1R,4R)-2-oxa-5-azabicyclo[2.2.1]heptan-5-yl]-4-pyridyl]tetralin-1-yl]-2-oxo-ethyl]cyclopropanecarboxamide]
6.00 to 7.00 | Cn1cncc1-c1ccc(NC(=O)C(Cc2cc(-c3ccnc(N4CC(CO)C4)c3)ccc2Cl)NC(=O)c2ccnn2C)cc1 (centres unmarked) [Example 190, N-[1-[[2-chloro-5-[2-[3-(hydroxymethyl)azetidin-1-yl]-4-pyridyl]phenyl]methyl]-2-[4-(3-methylimidazol-4-yl)anilino]-2-oxo-ethyl]-2-methyl-pyrazole-3-carboxamide]
6.00 to 7.00 | Cn1cncc1-c1ccc(NC(=O)C(Cc2cc(-c3ccnc(N4CCOCC4)c3)ccc2Cl)NC(=O)c2ccnn2C)cc1 (centres unmarked) [Example 165, N-[1-[[2-chloro-5-(2-morpholino-4-pyridyl)phenyl]methyl]-2-[4-(3-methylimidazol-4-yl)anilino]-2-oxo-ethyl]-2-methyl-pyrazole-3-carboxamide]
6.00 to 7.00 | Cc1ncn(C)c1-c1ccc(NC(=O)[C@@H](NC(=O)C2(F)CC2)[C@@H]2CCCc3ccc(-c4ccnc(N5C[C@H]6C[C@@H]5CN6)c4)cc32)cc1 [Example 389, N-[(1S)-1-[(1R)-7-[2-[(1R,4R)-2,5-diazabicyclo[2.2.1]heptan-2-yl]-4-pyridyl]tetralin-1-yl]-2-[4-(3,5-dimethylimidazol-4-yl)anilino]-2-oxo-ethyl]-1-fluoro-cyclopropanecarboxamide]

The next lines start with the molecule.

Compound | pEC50
CC(C)OC(=O)N[C@@H](Cc1cc(-c2ccc(=O)n(C(C)C)c2)ccc1Cl)C(=O)Nc1ccc(-c2nncn2C)cc1 [Example 99, isopropyl N-[(1S)-1-[[2-chloro-5-(1-isopropyl-6-oxo-3-pyridyl)phenyl]methyl]-2-[4-(4-methyl-1,2,4-triazol-3-yl)anilino]-2-oxo-ethyl]carbamate] | < 6.00
CC(C)n1cc(-c2cccc(C(c3ccccc3)C(NC(=O)OC3CC3)C(=O)Nc3ccc(-c4cncn4C)cc3)c2)ccc1=O (single isomer, unassigned; diastereomer 4) [Example 241, cyclopropyl N-[1-[[3-(1-isopropyl-6-oxo-3-pyridyl)phenyl]-phenyl-methyl]-2-[4-(3-methylimidazol-4-yl)anilino]-2-oxo-ethyl]carbamate (Diastereomer 4)] | < 6.00
Cc1cc(-c2ccc(Cl)c(CC(NC(=O)c3ccnn3C)C(=O)Nc3ccc(-c4nncn4C)cc3)c2)cc(C)c1C#N (centres unmarked) [Example 199, N-[1-[[2-chloro-5-(4-cyano-3,5-dimethyl-phenyl)phenyl]methyl]-2-[4-(4-methyl-1,2,4-triazol-3-yl)anilino]-2-oxo-ethyl]-2-methyl-pyrazole-3-carboxamide] | 6.00 to 7.00
CC(C)n1cc(-c2ccc(Cl)c(C[C@H](NC(=O)C(C)(F)F)C(=O)Nc3ccc(-c4nncn4C)cc3)c2)ccc1=O [Example 283, N-[(1S)-1-[[2-chloro-5-(1-isopropyl-6-oxo-3-pyridyl)phenyl]methyl]-2-[4-(4-methyl-1,2,4-triazol-3-yl)anilino]-2-oxo-ethyl]-2,2-difluoro-propanamide] | < 6.00
CCOc1cccc(-c2ccc(Cl)c(CC(NC(=O)c3ccnn3C)C(=O)Nc3ccc(-c4nncn4C)cc3)c2)c1 (centres unmarked) [Example 110, N-[1-[[2-chloro-5-(3-ethoxyphenyl)phenyl]methyl]-2-[4-(4-methyl-1,2,4-triazol-3-yl)anilino]-2-oxo-ethyl]-2-methyl-pyrazole-3-carboxamide] | 6.00 to 7.00
CN(c1cc(-c2ccc(Cl)c(CC(NC(=O)c3ccnn3C)C(=O)Nc3ccc(-c4cncn4C)cc3)c2)ccn1)C1CC1 (centres unmarked) [Example 150, N-[1-[[2-chloro-5-[2-[cyclopropyl(methyl)amino]-4-pyridyl]phenyl]methyl]-2-[4-(3-methylimidazol-4-yl)anilino]-2-oxo-ethyl]-2-methyl-pyrazole-3-carboxamide] | > 7.00
CC(C)n1cc(-c2ccc(Cl)c(C[C@H](NC(=O)[C@H]3CC3(F)F)C(=O)Nc3ccc(-c4nncn4C)cc3)c2)ccc1=O [Example 288, (1R)-N-[(1S)-1-[[2-chloro-5-(1-isopropyl-6-oxo-3-pyridyl)phenyl]methyl]-2-[4-(4-methyl-1,2,4-triazol-3-yl)anilino]-2-oxo-ethyl]-2,2-difluoro-cyclopropanecarboxamide] | < 6.00
CC(C)n1cc(-c2ccc(Cl)c(C[C@H](NC(=O)C3(C(F)(F)F)CC3)C(=O)Nc3ccc(-c4nncn4C)cc3)c2)ccc1=O [Example 117, N-[(1S)-1-[[2-chloro-5-(1-isopropyl-6-oxo-3-pyridyl)phenyl]methyl]-2-[4-(4-methyl-1,2,4-triazol-3-yl)anilino]-2-oxo-ethyl]-1-(trifluoromethyl) cyclopropanecarboxamide] | < 6.00
Cc1n[nH]c(C)c1-c1ccc(NC(=O)[C@H](Cc2cc(-c3ccc(=O)n(C(C)C)c3)ccc2Cl)NC(=O)c2ccnn2C)cc1O [Example 177, N-[(1S)-1-[[2-chloro-5-(1-isopropyl-6-oxo-3-pyridyl)phenyl]methyl]-2-[4-(3,5-dimethyl-1H-pyrazol-4-yl)-3-hydroxy-anilino]-2-oxo-ethyl]-2-methyl-pyrazole-3-carboxamide] | > 7.00
CC(c1cccc(-c2ccc(=O)n(C(C)C)c2)c1)[C@H](NC(=O)c1ccnn1C)C(=O)Nc1ccc(-c2cncn2C)cc1 (stereo partly drawn) [Example 56, N-[(1S)-2-[3-(1-isopropyl-6-oxo-3-pyridyl)phenyl]-1-[[4-(3-methylimidazol-4-yl)phenyl]carbamoyl]propyl]-2-methyl-pyrazole-3-carboxamide] | < 6.00
Cn1cnnc1-c1ccc(NC(=O)C(Cc2cc(-c3cccc(OC(F)(F)F)c3)ccc2Cl)NC(=O)c2ccnn2C)cc1 (centres unmarked) [Example 111, N-[1-[[2-chloro-5-[3-(trifluoromethoxy)phenyl]phenyl]methyl]-2-[4-(4-methyl-1,2,4-triazol-3-yl)anilino]-2-oxo-ethyl]-2-methyl-pyrazole-3-carboxamide] | 6.00 to 7.00
COCOc1ccc(-c2ccc(Cl)c(CC(NC(=O)c3ccnn3C)C(=O)Nc3ccc(-c4nncn4C)cc3)c2)cc1C(=O)N1CCC1 (centres unmarked) [Example 156, N-[1-[[5-[3-(azetidine-1-carbonyl)-4-(methoxymethoxy)phenyl]-2-chloro-phenyl]methyl]-2-[4-(4-methyl-1,2,4-triazol-3-yl)anilino]-2-oxo-ethyl]-2-methyl-pyrazole-3-carboxamide] | < 6.00
